Where “and” joins values, the source holds several entries; their conditions need not be identical. Equal entries are not always repeated. Calls of active or inactive are those of the source.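 How the source made its calls: active means compounds giving half or more protection of infected cells from virus-caused growth loss, again on retest; inactive means the rest.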
Test system: CEM cells HIV-1 protection, formazan growth assay
Test: NCI AIDS Antiviral Assay
Conditions: for IC50: measured here: growth of uninfected CEM cells
How it was run: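 Protection of CEM cells against HIV-1 was scored from cell growth (soluble formazan) across five concentrations, with parallel uninfected cells. Lack of protection may reflect toxicity.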

| SMILES | EC50 | IC50 | outcome |
| --- | --- | --- | --- |
| CN(C)C12CCCCC1S(=O)(=O)C2 (stereo not given) | > 891 µM | > 891 µM |  |
| COc1cc(N=Nc2ccc3c(c2)Cc2ccccc2-3)c(OC)cc1N | > 200 µM | 46.8 µM |  |
| CN1C(C)(C)CC(=O)C(Br)C1(C)C (stereo not given) | > 200 µM | 117 µM |  |
| Cc1ccc(C2=Nc3ccccc3SC(c3cccc([N+](=O)[O-])c3)C2)cc1 (stereo not given) | > 33.9 µM | 6.17 µM |  |
| COc1ccc2[nH]c(C)cc2c1CN | > 575 µM | 120 µM |  |
| O=C(NCC(O)CNC(=O)C(F)(F)F)C(F)(F)F |  |  | inactive |
| COc1cccc(C2c3cc4c(cc3OC(N3CCCC3)C2C)OCO4)c1OC (stereo not given) | > 200 µM | 1.41 µM |  |
| CC(=O)OCC1OC(n2c3c(cc(C#N)c2=S)CCCC3)C(OC(C)=O)C(OC(C)=O)C1OC(C)=O (stereo not given) | > 200 µM | 87.1 µM and > 200 µM |  |
| OC(C#CCN1CCCC1)(c1ccccc1)c1ccccc1.[C-]#[O+].[C-]#[O+].[C-]#[O+].[C-]#[O+].[C-]#[O+].[C-]#[O+].[Co].[Co] | > 200 µM | 7.41 µM |  |
| OC(c1ccc(-c2ccccc2)cc1)C(F)(F)c1nc2ccccc2o1 (stereo not given) | > 200 µM | 34.7 µM |  |
| Cc1ccc(C)c(NC(=O)C(=O)C(c2cnc3ccc([N+](=O)[O-])cc3n2)[N+](=O)[O-])c1 (stereo not given) | > 123 µM | > 123 µM |  |
| Cn1c(N)c(C(N)=O)[nH]c1=S | > 200 µM | > 200 µM |  |
| Cc1c(NC(=S)NC(=O)c2ccc([N+](=O)[O-])cc2)c(=O)n(-c2ccccc2)n1C |  |  | inactive |
| COC(=O)c1cccc(OC)c1C#Cc1c(OC)cccc1OC | > 200 µM | 21.9 µM |  |
| NC(N)=NS(=O)(=O)c1ccc(NC(=O)c2ccc3[nH]c4ccccc4c(=O)c3c2)cc1 | > 200 µM | > 200 µM |  |
| O=C1/C(=C\c2cccc(Oc3ccccc3)c2)SC(c2ccccc2)N1c1cccc(Cl)c1 (stereo not given) | > 200 µM | 16.2 µM |  |
| Nn1c(N=Nc2c(O)[nH]c3c(Cl)cc(Cl)cc23)n[nH]c1=S | > 14.1 µM | > 14.1 µM |  |
| Cn1c(O)c(N=NC(N)=S)c2ccccc21 | > 200 µM | 186 µM | inactive |
| c1ccc(CCN2CCc3[nH]c4ccccc4c3C2)cc1 | > 200 µM | 39.8 µM |  |
| c1ccc(-c2sc(-c3ccccc3)c3c2C(c2ccccc2)c2c(-c4ccccc4)sc(-c4ccccc4)c2C3c2ccccc2)cc1 (stereo not given) |  |  | inactive |
| CC1=Nc2c(C#N)ncn2N=C(C)C1 | > 200 µM | > 200 µM |  |
| Cn1c2ccccc2c2nnc(N/N=C/c3ccccn3)nc21 | > 200 µM | 0.115 µM |  |
| O=C1/C=C(/c2ccc(O)cc2)[C@@H](O)Cc2ccc(O)cc2O1 | > 200 µM | > 200 µM |  |

| SMILES | EC50 | IC50 | outcome |
| --- | --- | --- | --- |
| CN(C)C(=O)OC(Cn1cncn1)c1ccc(Cl)cc1Cl (stereo not given) | > 537 µM | 275 µM |  |
| Cc1[nH]c2nccn2c(=O)c1CCO | > 200 µM | > 200 µM |  |
| BrC1=CC=C2NC=CC3=CC=NC1C32 (stereo not given) |  |  | inactive |
| OCCN(/N=C\c1ccc2ccccc2c1)C1=NCCN1 | > 200 µM | 31.6 µM |  |
| Cc1cc(C)c(C(=O)c2no[n+]([O-])c2C(=O)c2c(C)cc(C)c(Br)c2C)c(C)c1Br | > 1.95 µM | > 1.95 µM |  |
| Cn1nc(-c2ccccc2)c(C(=O)/C=C/c2ccccc2)c(N2CCCC2)c1=O | 12.6 µM | 52.5 µM |  |
| Cc1ccc(C(=O)O)cc1NC(=O)c1cc(/C=C/c2ccccc2)[nH]c(=S)n1 | > 240 µM | > 240 µM |  |
| O=c1[nH]nc(-c2ccc([N+](=O)[O-])cc2)[nH]1 | > 200 µM | > 200 µM |  |
| NCC(O)c1ccc(Nc2ccnc3cc(Cl)ccc23)cc1 (stereo not given) | > 93.3 µM | 38 µM |  |
| CSC(=O)c1sc(SC)[n+](-c2ccccc2)c1O | > 200 µM | 10.2 µM |  |
| CCOC(=O)C(NC(=O)Nc1ccc(Cl)c(Cl)c1)C(F)(F)F (stereo not given) | > 200 µM | 141 µM |  |
| Cn1c(=O)c2c(ncn2CC(=O)NC23CC4CC(CC(C4)C2)C3)n(C)c1=O |  |  | inactive |
| Oc1ccc(C2=CSC3=NCCN23)cc1 |  |  | inactive |
| COC(=O)[C@@H](CO)NC(=O)OC(C)(C)C | > 200 µM | > 200 µM |  |
| [N-]=[N+]=NC1(N=[N+]=[N-])C(=O)NN=C(c2ccccc2)C1=O (stereo not given) |  |  | inactive |
| O=C1OCC2Cc3sccc3C(c3ccccc3)=C12 (stereo not given) | > 97.7 µM | > 97.7 µM |  |
| COc1cccc(CCNC(=O)Cc2ccccc2CCO)c1 | > 200 µM | > 200 µM |  |
| O=C1CCCc2c(O)ccc(O)c21 | > 380 µM | 60.3 µM |  |
| Fc1sc2c(c1F)C1CCC2C1 (stereo not given) | > 200 µM | 115 µM |  |
| CC1CC(C(=O)CC2CC(=O)NC(=O)C2)C(=O)[C@@H](C)C1 (stereo not given in full) |  |  | inactive |
| O=C1c2ccccc2C(=O)c2sc(Nc3ccc(Cl)c(Cl)c3)nc21 | > 19.1 µM | 15.8 µM |  |
| CC(=O)OC1=C(c2ccccc2)c2ccccc2OC1 | > 26.9 µM | > 26.9 µM |  |
| CC(C)CCC[C@@H](C)C1CCC2[C@@H]3CC=C4C[C@@H](OC(=O)CCC(=O)O)CC[C@]4(C)C3CC[C@@]21C (stereo not given in full) |  |  | inactive |

| SMILES | EC50 | IC50 | outcome |
| --- | --- | --- | --- |
| COC(OC)C1OC(CO)C(n2ccc(N)nc2=O)C1O (stereo not given) | > 200 µM | > 200 µM |  |
| Cc1c(NC(=S)Nc2ccc(Cl)cc2)c(=O)n(-c2ccccc2)n1C | > 200 µM | > 200 µM |  |
| CN(CCS(=O)(=O)N1C(=O)C2CCCN2C(=O)[C@@H]1Cc1ccccc1)C(=O)OCc1ccccc1 (stereo not given in full) | > 50.1 µM | > 50.1 µM |  |
| COc1cccc(Oc2c(O)c3ccc(OC)cc3oc2=O)c1 | > 200 µM | 141 µM |  |
| C=C(C)C1CCC2(CO)C(O)CC3(C)C(CCC4C5(C)CCC(O)C(C)(C)C5CCC43C)C12 (stereo not given) | > 100 µM | 75.9 µM |  |
| S=C1OC2CCCC[C@H]2O1 (stereo not given in full) | > 120 µM | > 120 µM |  |
| CCn1c2ccccc2n2c(=O)c3c(c(C#N)c12)CCCC3 | > 200 µM | > 200 µM |  |
| COc1ccc(/C(C#N)=C/c2ccc(N(C)CCC#N)cc2)cc1 | > 200 µM | 3.16 µM |  |
| COC(=O)C1(Cc2ccccc2)Cc2cc3c(cc2C1=O)CCC3 (stereo not given) | > 200 µM | 85.1 µM |  |
| Cn1c(=S)sc2nc3ccccc3n2c1=S | > 200 µM | 10.7 µM |  |
| O=C(NC(CO)C(=O)N[C@H]1c2ccsc2C(=O)[C@H]1O)OCc1ccccc1 (stereo not given in full) |  |  | inactive |
| CO/N=C(\C(=O)Nc1cncs1)c1csc(N)n1 | > 200 µM | > 200 µM |  |
| CN=C(NC(=S)N(C)C)N(C)C |  |  | inactive |
| CN(C)Cc1cc(C(=O)/C=C/c2c(Cl)cccc2Cl)cc(CN(C)C)c1O | > 200 µM | 2.69 µM |  |
| CC1=Nc2sc3c(c2C2=NCCN12)CCCC3 | > 200 µM | 34.7 µM |  |
| CSc1c(C(=O)Nc2ccccc2)c(N)n(N)c(=O)c1C#N | 55 µM | > 200 µM |  |
| CCOC1CCC2C(CCC(/C=C/c3ccc(O)c4ncccc34)N2C)C1 (stereo not given) | > 28.2 µM | 4.9 µM |  |
| C=C(C)C1C/C=C(/C)CCCC2(CCC3=C(CC(C(=C)C)C/C=C(/C)CCC3)O2)C(=O)C1 (stereo not given) | > 30.9 µM | > 30.9 µM |  |
| CC(=O)c1ccc2c(c1)N(CCCN(C)C)c1ccccc1S2 | > 200 µM | 34.7 µM |  |
| NC/C(=C\C(=O)O)c1ccc(Cl)cc1 |  |  | inactive |
| CC(=O)OC1CC2(C)C(OC(C)=O)CC1C2(C)C (stereo not given) | > 200 µM | > 200 µM |  |
| C[N+]12C=CC=C1C(N1CCCC1)c1scc(-c3ccc(Br)cc3)c12 (stereo not given) | > 200 µM | 10.7 µM |  |
| CC1C=CC(C(=O)O)C2C(=O)OC(=O)C12 (stereo not given) | > 1200 µM | > 1200 µM |  |

| SMILES | EC50 | IC50 | outcome |
| --- | --- | --- | --- |
| CCC(C)c1c(NS(=O)(=O)c2ccc(C)cc2)o[nH]c1=O (stereo not given) | > 200 µM | > 200 µM |  |
| CCC[CH2][Sn]([Cl])([CH2]CCC)[S]C(=S)NCCNC(=S)[S][Sn]([Cl])([CH2]CCC)[CH2]CCC | > 2 µM | 0.102 µM |  |
| Nc1ncc(/C=C/CNC(=O)c2ccc[nH]2)[nH]1 | > 1070 µM | 155 µM |  |
| CCCc1cc(=O)oc2c3c(c4c(c12)OC(C)(C)C=C4)O[C@H](C)C(C)[C@@H]3O (stereo not given in full) | 0.331 µM | 25.1 µM |  |
| COC(=O)c1ccc(/C=C2\Oc3cc(O)ccc3C2=O)cc1 | > 200 µM | 182 µM |  |
| O=C1N[C@H]2c3c(Cl)sc(Cl)c3[C@@H](O)[C@H]2O1 | > 200 µM | > 200 µM |  |
| Brc1ccccc1C1SCc2nc3ncccc3n21 (stereo not given) | > 77.6 µM | > 77.6 µM |  |
| CCCN(CCC)C1CCc2c(ccc3cc[nH]c23)C1 (stereo not given) |  |  | inactive |
| CC(C)=C=CC(C)(C)NS(=O)(=O)NC(C)(C)C=C=C(C)C | > 200 µM | 105 µM |  |
| O=C(N[C@H](CO)[C@H](O)c1ccc([N+](=O)[O-])cc1)C(Cl)Cl | > 200 µM | > 200 µM |  |
| COc1ccc2c(c1)C(=O)/C(=C/c1ccccc1)C2 | > 200 µM | 47.9 µM |  |
| O=C(C[C@H](NC(=O)OCc1ccccc1)C(=O)NC1Cc2ccccc2OC1=O)OCc1ccccc1 (stereo not given in full) | > 200 µM | 93.3 µM |  |
| C/C(=N\O)c1ccc(S(=O)(=O)c2ccc([N+](=O)[O-])cc2)cc1 | > 200 µM | > 200 µM |  |
| Cn1c(N)c(Cc2ccc(Cl)cc2)c(=O)[nH]c1=O | > 200 µM | > 200 µM |  |
| N#CC(NNC(=O)c1ccccc1O)c1cccc(O)c1 (stereo not given) | > 6.31 µM | 0.562 µM |  |
| O=C(Nc1ccc(Cl)c(Cl)c1)C(=O)C(C1OC(=O)c2ccccc21)[N+](=O)[O-] (stereo not given) | > 87.1 µM | > 87.1 µM |  |
| COc1cccc2c1-c1nc(N)c3c(OC)cccc3c1C2=O | 74.1 µM | > 200 µM |  |
| Cc1cc(N)ccc1C=O | > 200 µM | > 200 µM |  |
| CCOC(=O)C1C(c2ccc(OC)cc2)c2c([nH]n(-c3ccccc3)c2=O)CC1(O)OCC (stereo not given) | > 200 µM | 9.12 µM |  |
| C=CCC(C(=O)NC(N)=O)c1ccccc1 (stereo not given) | > 832 µM | 617 µM |  |
| CC(C)(C)OC(=O)CN1CCNCCN(CC(=O)OC(C)(C)C)CCNCC1 | > 200 µM | 13.8 µM |  |
| CN(C)CCC(=O)c1ccc(Cl)cc1 | > 107 µM | 27.5 µM |  |

From PubChem BioAssay AID179 (DTP/NCI, 2004)
